In patent US5250546A, “Amino-alcohol derivatives and processes for their preparation” (Nippon Chemiphar Co., Ltd., priority 1984, dated 1993):

Key:
[1] = tested on: glutamic acid at neuromuscular junctions of crayfish (opener muscles of the first walking legs); assay: Blocking effects against glutamic acid at neuromuscular junctions of crayfish (L-glutamic acid-induced depolarization); type: cell-based; conditions: 5 min; suppression rate of depolarization by L-glutamic acid (10^-4 M); 5-minute pretreatment with test compound 2×10^-4 M
Source text: The opener muscles of the first walking legs of crayfish were used as experimental materials. The neuromuscular sample was held in a bath in which a physiological solution [composition (mM): NaCl (195), CaCl2 (18), KCl (5.4), tris-maleate buffer (pH 7.5; 10), glucose (11)] for use with the crayfish was perfused at room temperature and at a constant flow rate. A glass micro-electrode filled with a 3M-KCl solution was inserted in a central part of the muscle fiber to intracellularly record changes in the potential of the muscular cell membrane.
The blocking effect of each test compound against glutamic acid was evaluated in terms of the suppression rate to depolarization which was induced by bath-applying L-glutamic acid (10^-4 M) in a 5-minute pretreatment with a solution of the test compound (2×10^-4 M).

[2] = tested on: anemic decerebrate rigidity (Wistar male rats); assay: Effects on anemic decerebrate rigidity (EMG of M. triceps brachii); type: in vivo; conditions: Rattus norvegicus, iv, 10 min; 3 mg/kg through the femoral vein; 10 minutes after administration; read-out: Suppression rate (rigidity, EMG pulse area)
Experimental: An anemic decerebrate rigidity sample was prepared principally in accordance with the procedure of Fukuda et al. [Japan. […] Wistar male rats (body weight: 270 to 350 g) were held on their backs and incised at their cervices under etherization. After the trachea and common carotid arteries were exposed, the trachea was cannulated and the bilateral common carotid arteries and esophagus were then double-ligated and cut. Thereafter, its occipital bone was exposed through which a circular hole was bored to double-ligate the centrally extending basilar artery. As each rat started coming out of anesthetization, its front limbs became rigid. Measurement was conducted by recording electromyographic (EMG) response from the muscle of the forelimb (M. triceps brachii) of the rat in the rigid state. The EMG pulses were converted to accumulated values every 10 seconds and recorded as a histogram on a recorder.
The effect of each test compound on the rigidity was evaluated in terms of the suppression rate. This rate was calculated first by determining the area of a decreased EMG pulse part on the histogram upon passage of 10 minutes after administration of a physiological saline solution of each test compound (3 mg/kg) through the femoral vein and then in accordance with the following equation.
A: EMG pulse area when no test compound was administered (control).

[3] = Acute toxicity, up-and-down method; conditions: mouse, in vivo; iv (caudal vein), ddN male mice
Experimental: Using ddN male mice, the acute toxicity level of each test compound was determined in accordance with an up-and-down method. Some of the test compounds used were dissolved in physiological saline and administered through the caudal vein.

Row | SMILES | inhibition at 200 µM [1] [%] | inhibition in vivo at 3 mg/kg [2] [%] | LD50 [3] [mg/kg]
1 | CCCCC[C@H](NCCCN1CCCCC1)[C@H](O)c1ccccc1.Cl.Cl (racemic) [Compound 5, (1RS,2SR)-1-phenyl-2-(3-piperidinopropylamino)heptan-1-ol dihydrochloride] | 100 | 18.5 | 22.1
2 | CC(C)CC[C@H](NCCCN1CCCCC1)[C@H](O)c1ccccc1.Cl.Cl (racemic) [Compound 21, (1RS,2SR)-5-methyl-1-phenyl-2-(3-piperidinopropylamino)hexan-1-ol dihydrochloride] | 100 | 65.9 | 13.6
3 | CC(C)CC[C@H](NCCCN1CCCC1)[C@H](O)c1ccccc1.Cl.Cl (racemic) [Compound 35, (1RS,2SR)-5-methyl-1-phenyl-2-(3-pyrrolidinopropylamino)hexan-1-ol dihydrochloride] | 100 | 21.6 | 26.7
